Counter-ions that a name gives are not always drawn.
Tested on: HS 578T
Assay: Growth inhibition GI50, HS 578T
Assay type: cell-based
Conditions: Homo sapiens, Breast Cancer
Protocol: Cell lines were plated 2000 cells/well in 96-well black optical plates in the presence of 10% FBS media containing 25 nM selenite. The following day cells were treated with various concentrations of the compound of Example 1 (0.1% DMSO final) and incubated for 72 hrs. After the incubation Cell-Quanti Blue reagent was added to each well and incubated for additional 3 hrs. Fluorescence was read ex:530 nm/em:590 nm, and percent of viability was determined using DMSO vehicle and no cell (blank) controls.
Further results obtained in similar experiments were as indicated below (GI50 refers to concentration of compound yielding 50% growth inhibition; E denotes an exponent to the base 10).

Which GI50 does the source give for `COc1ccc([N+](=O)[O-])c(S(=O)(=O)c2ccc(Cl)cc2)n1` [Example 1, 2-((4-Chlorophenyl)sulphonyl)-6-methoxy-3-nitropyridine Hydrochloride] here?
The GI50 was 13 µM.
